Measurements reported in patent US8501794B2, “Compounds as cannabinoid receptor ligands” (priority 2007, dated 2013).

Assays:
human CB2 receptors = target: T1, human CB2 receptors (Homo sapiens, UniProt P34972); test: human CB2 radioligand binding assay ([3H]CP-55,940 competition)
T1 construct: expressed in transfected cells; host or cells: HEK293

rat CB2 [1] = target: T2, rat CB2 (Rattus norvegicus, UniProt Q9QZN9); test: rat CB2 cyclase functional assay (HitHunter cAMP, HEK cells); assay type: cell-based; parameters: expressed in transfected cells; host or cells: HEK; settings: forskolin 18 μM
T2 sequence (Q9QZN9 1-360): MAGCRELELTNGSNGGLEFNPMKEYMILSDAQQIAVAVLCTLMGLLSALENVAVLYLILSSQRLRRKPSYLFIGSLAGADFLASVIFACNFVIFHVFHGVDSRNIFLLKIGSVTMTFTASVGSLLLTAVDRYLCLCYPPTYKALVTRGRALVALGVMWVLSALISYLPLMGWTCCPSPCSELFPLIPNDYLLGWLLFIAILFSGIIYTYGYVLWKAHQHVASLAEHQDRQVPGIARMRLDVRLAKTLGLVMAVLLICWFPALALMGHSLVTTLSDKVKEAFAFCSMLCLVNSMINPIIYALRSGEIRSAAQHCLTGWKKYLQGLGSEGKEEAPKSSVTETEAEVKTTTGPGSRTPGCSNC

rat CB2 [2] = target: T2, rat CB2; test: rat CB2 radioligand binding assay ([3H]CP-55,940 competition); parameters: expressed in transfected cells; host or cells: HEK293

T1 sequence (P34972 whole entry): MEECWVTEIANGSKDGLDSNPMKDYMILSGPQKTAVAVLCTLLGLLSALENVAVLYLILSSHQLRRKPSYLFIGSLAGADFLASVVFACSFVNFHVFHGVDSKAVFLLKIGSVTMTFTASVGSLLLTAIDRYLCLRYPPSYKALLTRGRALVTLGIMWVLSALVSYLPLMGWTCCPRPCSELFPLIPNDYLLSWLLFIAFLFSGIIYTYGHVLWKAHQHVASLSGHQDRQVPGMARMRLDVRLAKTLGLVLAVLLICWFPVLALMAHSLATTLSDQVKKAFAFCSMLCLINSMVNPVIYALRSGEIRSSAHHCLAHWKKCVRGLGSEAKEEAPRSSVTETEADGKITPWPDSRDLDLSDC

In the case of `COc1ccc(Cl)cc1C(=O)/N=c1\sn(C(C)(C)C)cc1CCCC(C)(C)O` [Example 80, N-[(5Z)-2-tert-butyl-4-(4-hydroxy-4-methylpentyl)isothiazol-5(2H)-ylidene]-5-chloro-2-methoxybenzamide], the Ki (human CB2 receptors) is reported as 74 nM, the EC50 (rat CB2 [1]) is reported as 0.046 nM and the Ki (rat CB2 [2]) is reported as 8.5 nM.
Work on `COc1ccc(Cl)cc1C(=O)/N=c1\sn(C(C)(C)C)cc1CCC(C)(C)C#N` [Example 137, N-[(5Z)-2-tert-butyl-4-(3-cyano-3-methylbutyl)isothiazol-5(2H)-ylidene]-5-chloro-2-methoxybenzamide] yielded a Ki (human CB2 receptors) of 7.5 nM, an EC50 (rat CB2 [1]) of 2.2 nM and a Ki (rat CB2 [2]) of 2.6 nM.
Compound `COc1ccc(Cl)cc1C(=O)/N=c1\sn(C(C)(C)C)cc1Cc1cscn1` [Example 52, N-[(5Z)-2-tert-butyl-4-(1,3-thiazol-4-ylmethyl)isothiazol-5(2H)-ylidene]-5-chloro-2-methoxybenzamide] has a Ki (human CB2 receptors) of 43 nM, an EC50 (rat CB2 [1]) of 0.15 nM and a Ki (rat CB2 [2]) of 4.8 nM.
`CCCCc1cn(C(C)(C)C)s/c1=N\C(=O)[C@@]1(C)CC[C@@H](C(=O)N(C)C)C1(C)C` [Example 223, (1S,3R)—N^1-[(5Z)-4-butyl-2-tert-butylisothiazol-5(2H)-ylidene]-N^3,N^3,1,2,2-pentamethylcyclopentane-1,3-dicarboxamide] was tested, and the Ki (human CB2 receptors) was 92 nM, the EC50 (rat CB2 [1]) was 5.8 nM and the Ki (rat CB2 [2]) was 62 nM.
Compound `CCCCc1cn(C(C)(C)C)s/c1=N\C(=O)c1cc(C#N)ccc1OC` [Example 26, N-[(5Z)-4-butyl-2-tert-butylisothiazol-5(2H)-ylidene]-5-cyano-2-methoxybenzamide] has a Ki (human CB2 receptors) of 14 nM, an EC50 (rat CB2 [1]) of 0.23 nM and a Ki (rat CB2 [2]) of 1 nM.
For `CCCCc1cn(C(C)(C)C)s/c1=N\C(=O)c1cc(C(C)=O)ccc1OC` [Example 64, 5-acetyl-N-[(5Z)-4-butyl-2-tert-butylisothiazol-5(2H)-ylidene]-2-methoxybenzamide], the Ki (human CB2 receptors) was 14 nM, the EC50 (rat CB2 [1]) was 0.05 nM and the Ki (rat CB2 [2]) was 0.63 nM.
With `CCCCc1cn(C(C)(C)C)s/c1=N\C(=O)[C@]1(C)CC[C@H](C(=O)OCC)C1(C)C` [Example 175, Ethyl (1S,3R)-3-({[(5Z)-4-butyl-2-tert-butylisothiazol-5(2H)-ylidene]amino}carbonyl)-2,2,3-trimethylcyclopentanecarboxylate] the Ki (human CB2 receptors) was 3.8 nM, the EC50 (rat CB2 [1]) was 0.54 nM and the Ki (rat CB2 [2]) was 1.5 nM.
In the case of `COc1ccc(Cl)cc1C(=O)/N=c1\sn(C(C)(C)C)cc1CCC(C)(C)F` [Example 87, N-[(5Z)-2-tert-butyl-4-(3-fluoro-3-methylbutyl)isothiazol-5(2H)-ylidene]-5-chloro-2-methoxybenzamide], the Ki (human CB2 receptors) is reported as 12 nM, the EC50 (rat CB2 [1]) is reported as 0.15 nM and the Ki (rat CB2 [2]) is reported as 0.74 nM.
`CCCCc1cn(C(C)(C)C)s/c1=N\C(=O)C1(C)CCC(C(=O)NC)C1(C)C` (stereo not drawn) [Example 100, N^1-[(5Z)-4-butyl-2-tert-butylisothiazol-5(2H)-ylidene]-N^3,1,2,2-tetramethylcyclopentane-1,3-dicarboxamide] showed a Ki (human CB2 receptors) of 10 nM, an EC50 (rat CB2 [1]) of 0.99 nM and a Ki (rat CB2 [2]) of 9.9 nM.
Compound `CCCCc1cn(C(C)(C)C)s/c1=N\C(=O)[C@@H]1CC[C@](C)(C(=O)NCCO)C1(C)C` [Example 212, (1S,3R)—N^3-[(5Z)-4-butyl-2-tert-butylisothiazol-5(2H)-ylidene]-N^1-(2-hydroxyethyl)-1,2,2-trimethylcyclopentane-1,3-dicarboxamide] has a Ki (human CB2 receptors) of 180 nM, an EC50 (rat CB2 [1]) of 6.2 nM and a Ki (rat CB2 [2]) of 257 nM.
`COc1ccc(Cl)cc1C(=O)/N=c1\sn(C(C)(C)C)cc1CCCC(C)(C)F` [Example 83, N-[(5Z)-2-tert-butyl-4-(4-fluoro-4-methylpentyl)isothiazol-5(2H)-ylidene]-5-chloro-2-methoxybenzamide] gave a Ki (human CB2 receptors) of 12 nM, an EC50 (rat CB2 [1]) of 0.073 nM and a Ki (rat CB2 [2]) of 0.79 nM.
Work on `COc1ccc(Cl)cc1C(=O)/N=c1\sn(C(C)(C)C)cc1CCC1CCC1` [Example 36, N-[(5Z)-2-tert-butyl-4-(2-cyclobutylethyl)isothiazol-5(2H)-ylidene]-5-chloro-2-methoxybenzamide] yielded a Ki (human CB2 receptors) of 1.3 nM, an EC50 (rat CB2 [1]) of 0.91 nM and a Ki (rat CB2 [2]) of 0.16 nM.
For `CCCCc1cn(C(C)(C)C)s/c1=N\C(=O)C1=CC(=O)CC(C)(C)O1` [Example 125, N-[(5Z)-4-butyl-2-tert-butylisothiazol-5(2H)-ylidene]-2,2-dimethyl-4-oxo-3,4-dihydro-2H-pyran-6-carboxamide], the Ki (human CB2 receptors) was 31 nM, the EC50 (rat CB2 [1]) was 2.6 nM and the Ki (rat CB2 [2]) was 1 nM.
In the case of `COc1ccc(C(F)(F)F)cc1C(=O)/N=c1\sn(C(C)(C)C)cc1Cc1ccco1` [Example 71, N-[(5Z)-2-tert-butyl-4-(2-furylmethyl)isothiazol-5(2H)-ylidene]-2-methoxy-5-(trifluoromethyl)benzamide], the Ki (human CB2 receptors) is reported as 28 nM, the EC50 (rat CB2 [1]) is reported as 0.36 nM and the Ki (rat CB2 [2]) is reported as 1.9 nM.
Compound `COc1ccc(Cl)cc1C(=O)/N=c1\sn(C(C)(C)C)cc1CCC(C)O` (stereo not drawn) [Example 18, N-[(5Z)-2-tert-butyl-4-(3-hydroxybutyl)isothiazol-5(2H)-ylidene]-5-chloro-2-methoxybenzamide] has a Ki (human CB2 receptors) of 86 nM, an EC50 (rat CB2 [1]) of 2.7 nM and a Ki (rat CB2 [2]) of 4.3 nM.
For `CCCCc1cn(C(C)(C)C)s/c1=N\C(=O)[C@@]1(C)CC[C@@H](C(=O)OC)C1(C)C` [Example 186, Methyl (1R,3S)-3-({[(5Z)-4-butyl-2-tert-butylisothiazol-5(2H)-ylidene]amino}carbonyl)-2,2,3-trimethylcyclopentanecarboxylate], the Ki (human CB2 receptors) was 1.7 nM, the EC50 (rat CB2 [1]) was 0.38 nM and the Ki (rat CB2 [2]) was 1.4 nM.
Compound `CC(C)(C)n1cc(CCCC#N)/c(=N/C(=O)c2cc(Cl)ccc2OCC(N)=O)s1` [Example 141, 2-(2-amino-2-oxoethoxy)-N-[(5Z)-2-tert-butyl-4-(3-cyanopropyl)isothiazol-5(2H)-ylidene]-5-chlorobenzamide] has a Ki (human CB2 receptors) of 56 nM, an EC50 (rat CB2 [1]) of 0.094 nM and a Ki (rat CB2 [2]) of 15 nM.
For `CCCCc1cn(C(C)(C)C(F)(F)F)s/c1=N\C(=O)c1cc(Cl)ccc1OC` [Example 151, N-[(5Z)-4-butyl-2-(2,2,2-trifluoro-1,1-dimethylethyl)isothiazol-5(2H)-ylidene]-5-chloro-2-methoxybenzamide], the Ki (human CB2 receptors) was 9.1 nM, the EC50 (rat CB2 [1]) was 0.072 nM and the Ki (rat CB2 [2]) was 0.4 nM.
`CCCCc1cn(C(C)(C)C)s/c1=N\C(=O)[C@]1(C)CC[C@H](C(=O)NC)C1(C)C` [Example 184, (1R,3S)—N^1-[(5Z)-4-butyl-2-tert-butylisothiazol-5(2H)-ylidene]-N^3,1,2,2-tetramethylcyclopentane-1,3-dicarboxamide] was tested, and the Ki (human CB2 receptors) was 6.5 nM, the EC50 (rat CB2 [1]) was 0.41 nM and the Ki (rat CB2 [2]) was 3.2 nM.
In the case of `CCCCc1cn(C(C)(C)C)s/c1=N\C(=O)[C@]1(C)CC[C@H](NC(N)=O)C1(C)C` [Example 245, (1R,3S)-3-[(aminocarbonyl)amino]-N-[(5Z)-4-butyl-2-tert-butylisothiazol-5(2H)-ylidene]-1,2,2-trimethylcyclopentanecarboxamide], the Ki (human CB2 receptors) is reported as 32 nM, the EC50 (rat CB2 [1]) is reported as 9.6 nM and the Ki (rat CB2 [2]) is reported as 35 nM.
In the case of `COc1ccc(Cl)cc1C(=O)/N=c1\sn(C(C)(C)C)cc1OCCCCF` [Example 158, N-[(5Z)-2-tert-butyl-4-(4-fluorobutoxy)isothiazol-5(2H)-ylidene]-5-chloro-2-methoxybenzamide], the Ki (human CB2 receptors) is reported as 48 nM, the EC50 (rat CB2 [1]) is reported as 0.046 nM and the Ki (rat CB2 [2]) is reported as 6.1 nM.
In the case of `CCCCc1cn(C(C)(C)C)s/c1=N\C(=O)c1cc(C=O)ccc1OC` [Example 56, N-[(5Z)-4-butyl-2-tert-butylisothiazol-5(2H)-ylidene]-5-formyl-2-methoxybenzamide], the Ki (human CB2 receptors) is reported as 11 nM, the EC50 (rat CB2 [1]) is reported as 0.076 nM and the Ki (rat CB2 [2]) is reported as 1.2 nM.
With `COc1ccc(Cl)cc1C(=O)/N=c1\sn(C(C)(C)C)cc1CC1CCCO1` (stereo not drawn) [Example 67, N-[(5Z)-2-tert-butyl-4-(tetrahydrofuran-2-ylmethyl)isothiazol-5(2H)-ylidene]-5-chloro-2-methoxybenzamide] the Ki (human CB2 receptors) was 32 nM, the EC50 (rat CB2 [1]) was 3.7 nM and the Ki (rat CB2 [2]) was 3 nM.
In the case of `CCCCc1cn(C(C)(C)C)s/c1=N\C(=O)c1cc(OC)ccc1OC` [Example 41, N-[(5Z)-4-butyl-2-tert-butylisothiazol-5(2H)-ylidene]-2,5-dimethoxybenzamide], the Ki (human CB2 receptors) is reported as 45 nM, the EC50 (rat CB2 [1]) is reported as 0.21 nM and the Ki (rat CB2 [2]) is reported as 6.3 nM.
With `CCCCc1cn(C(C)(C)C)s/c1=N\C(=O)C1C(C)(C)C1(C)C` [Example 121, N-[(5Z)-4-butyl-2-tert-butylisothiazol-5(2H)-ylidene]-2,2,3,3-tetramethylcyclopropanecarboxamide] the Ki (human CB2 receptors) was 0.8 nM, the EC50 (rat CB2 [1]) was 0.33 nM and the Ki (rat CB2 [2]) was 0.52 nM.
`CC/C=C\c1cn(C(C)(C)C)s/c1=N\C(=O)c1cc(Cl)ccc1OC` [Example 25, N-[(5Z)-4-[(1Z)-but-1-enyl]-2-tert-butylisothiazol-5(2H)-ylidene]-5-chloro-2-methoxybenzamide] was tested, and the Ki (human CB2 receptors) was 51 nM, the EC50 (rat CB2 [1]) was 1.7 nM and the Ki (rat CB2 [2]) was 1.6 nM.
Work on `CCCCc1cn(C(C)(C)C)s/c1=N\C(=O)[C@@H]1CC[C@](C)(C(=O)NCC)C1(C)C` [Example 210, (1S,3R)—N^3-[(5Z)-4-butyl-2-tert-butylisothiazol-5(2H)-ylidene]-N^1-ethyl-1,2,2-trimethylcyclopentane-1,3-dicarboxamide] yielded a Ki (human CB2 receptors) of 36 nM, an EC50 (rat CB2 [1]) of 0.19 nM and a Ki (rat CB2 [2]) of 49 nM.
`CCCCc1cn(C(C)(C)C)s/c1=N\C(=O)c1cc(Cl)ccc1OCC#N` [Example 153, N-[(5Z)-4-butyl-2-tert-butylisothiazol-5(2H)-ylidene]-5-chloro-2-(cyanomethoxy)benzamide] showed a Ki (human CB2 receptors) of 13 nM, an EC50 (rat CB2 [1]) of 0.061 nM and a Ki (rat CB2 [2]) of 2.1 nM.
